Patent US20050074879A1, “Antisense oligonucleotide modulation of STAT3 expression” (priority 2000, published 2005)
Oligonucleotides are written 5' to 3', each unit as a sugar letter and its base; * is a phosphorothioate linkage, no mark a phosphodiester; rarer units and linkages stand in square brackets, end groups in braces. Plain capitals give the bases only. e = 2'-O-(2-methoxyethyl) (MOE); [5mC] = 5-methylcytosine; d = 2'-deoxy (DNA)

System: Mouse STAT3 mRNA
Test: Inhibition of mouse STAT3 mRNA expression in BCL1 cells (electroporation; RNase protection/Northern blot)
Assay type: cell-based
Design: % mRNA INHIBITION: dose or concentration left out as unconfirmed
Details: BCL1 cells electroporated with oligonucleotide, RNA collected 24 hours later; for % mRNA EXPRESSION: control 100%
Method: The B lymphoma cell line, BCL1 was obtained from ATCC (Rockville, Md.). BCL1 cells were cultured in RPMI 1640 medium.
BCL1 cells (5×10^6 cells in PBS) were transfected with oligonucleotides by electroporation, at 200V, […]. using a BTX Electro Cell Manipulator 600 (Genetronics, San Diego, Calif.). For an initial screen, BCL1 were electroporated with […] oligonucleotide and RNA collected 24 hours later. Controls without oligonucleotide were subjected to the same electroporation conditions.
Total cellular RNA was isolated using the RNEASY7 kit (Qiagen, Santa Clarita, Calif.). RNAse protection experiments were conducted using RIBOQUANT™ kits and template sets according to the manufacturer's instructions (Pharmingen, San Diego, Calif.). Northern blotting was performed as described in Chiang, M-Y. et al. (J. Biol. Chem., 1991, 266, 18162-18171), using a rat cDNA probe prepared by Xho I/Sal I restriction digest of psvsport-1 plasmid (ATCC, Rockville, Md.). mRNA levels were quantitated using a PhosphorImager (Molecular Dynamics, Sunnyvale, Calif.).

| Substance | % mRNA INHIBITION | % mRNA EXPRESSION |
| --- | --- | --- |
| 17136 (antisense eG*eT*eT*e[5mC]*e[5mC]*dA*dC*dT*dG*dA*dG*dC*dC*dA*dT*e[5mC]*e[5mC]*eT*eG*e[5mC]) [compound 17136] | 25% | 75% |
| 17137 (antisense eT*eT*e[5mC]*eA*eG*dG*dT*dA*dG*dC*dG*dT*dG*dT*dG*eT*e[5mC]*e[5mC]*eA*eG) [compound 17137] | 25% | 75% |
| 17138 (antisense eA*eT*eG*eT*eG*dA*dC*dT*dC*dT*dT*dT*dG*dC*dT*eG*eG*e[5mC]*eT*eG) [compound 17138] | 63% | 37% |
| 17139 (antisense e[5mC]*e[5mC]*eA*eA*eG*dA*dG*dA*dT*dT*dA*dT*dG*dA*dA*eA*e[5mC]*eA*e[5mC]*e[5mC]) [compound 17139] | 59% | 41% |
| 17140 (antisense eG*e[5mC]*eT*e[5mC]*e[5mC]*dA*dA*dC*dA*dT*dC*dT*dG*dC*dT*eG*e[5mC]*eT*eT*e[5mC]) [compound 17140] | 60% | 40% |
| 17141 (antisense eG*e[5mC]*eT*e[5mC]*eT*dT*dC*dA*dT*dC*dA*dG*dT*dC*dA*eG*eT*eG*eT*e[5mC]) [compound 17141] | 38% | 62% |
| 17142 (antisense eA*eT*e[5mC]*eT*eG*dA*dC*dA*dC*dC*dC*dT*dG*dA*dG*eT*eA*eG*eT*eT) [compound 17142] | 30% | 70% |
| 17143 (antisense eG*e[5mC]*e[5mC]*eA*eG*dA*dC*dC*dC*dA*dG*dA*dA*dG*dG*eA*eG*eA*eA*eG) [compound 17143] | 58% | 42% |
| 17144 (antisense e[5mC]*eG*e[5mC]*eT*e[5mC]*dC*dT*dT*dG*dC*dT*dG*dA*dT*dG*eA*eA*eA*e[5mC]*e[5mC]) [compound 17144] | 45% | 55% |
| 17145 (antisense eA*eA*e[5mC]*eT*eT*dG*dG*dT*dC*dT*dT*dC*dA*dG*dG*eT*eA*e[5mC]*eG*eG) [compound 17145] | 11% | 89% |
